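Each compound was tested at five concentrations against cells in 96-well plates for 48 hours. GI50 marks 50% less growth. TGI marks complete inhibition of growth.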
How the values were obtained:
Experiment in all cases: growth of human tumour cells (NCI), 48 h
[1] = tested on: SN12C renal
[2] = tested on: OVCAR-5 ovarian
[3] = tested on: HOP-92 NSCLC
[4] = tested on: HS 578T breast
[5] = tested on: OVCAR-4 ovarian
[6] = tested on: MOLT-4 leukemia
[7] = tested on: SNB-19 CNS
[8] = tested on: IGROV1 ovarian
[9] = tested on: HCC-2998 colon
[10] = tested on: U251 CNS
[11] = tested on: TK-10 renal
[12] = tested on: OVCAR-8 ovarian
[13] = tested on: RXF 393 renal
[14] = tested on: MALME-3M melanoma
[15] = tested on: 786-0 renal
[16] = tested on: SK-OV-3 ovarian
[17] = tested on: SF-539 CNS
[18] = tested on: UACC-257 melanoma
[19] = tested on: T-47D breast
[20] = tested on: SW-620 colon
[21] = tested on: SF-295 CNS
[22] = tested on: HL-60(TB) leukemia
[23] = tested on: EKVX NSCLC
[24] = tested on: NCI/ADR-RES ovarian
[25] = tested on: MCF7 breast
[26] = tested on: SNB-75 CNS
[27] = tested on: K-562 leukemia
[28] = tested on: NCI-H522 lung
[29] = tested on: CCRF-CEM leukemia
[30] = tested on: LOX IMVI melanoma
[31] = tested on: MDA-MB-231 breast
[32] = tested on: SF-268 CNS
[33] = tested on: SK-MEL-28 melanoma
[34] = tested on: COLO 205 colon
[35] = tested on: ACHN renal
[36] = tested on: PC-3 prostate
[37] = tested on: SK-MEL-2 melanoma
[38] = tested on: HT29 colon
[39] = tested on: RPMI-8226 leukemia
[40] = tested on: SR leukemia
[41] = tested on: A549 NSCLC
[42] = tested on: HOP-62 NSCLC
[43] = tested on: NCI-H460 lung
[44] = tested on: DU-145 prostate
[45] = tested on: HCT-116 colon
[46] = tested on: BT-549 breast
[47] = tested on: A498 renal
[48] = tested on: UO-31 renal
[49] = tested on: MDA-MB-435
[50] = tested on: SK-MEL-5 melanoma
[51] = tested on: HCT-15 colon
[52] = tested on: CAKI-1 renal
[53] = tested on: NCI-H226 lung
[54] = tested on: M14 melanoma
[55] = tested on: KM12 colon
[56] = tested on: UACC-62 melanoma

SMILES: CCNC(=O)Oc1ccc(/C(=C(/C)c2ccc(Cl)cc2)c2ccc(OCCN3CCCCCC3)cc2)cc1
- GI50 [1]: 1.67 µM
- TGI [1]: 3.18 µM
- GI50 [2]: 1.99 µM
- TGI [2]: 4.38 µM
- GI50 [3]: 1.41 µM
- TGI [3]: 2.86 µM
- GI50 [4]: 1.95 µM
- TGI [4]: 4.26 µM
- GI50 [5]: 1.96 µM
- TGI [5]: 4.55 µM
- GI50 [6]: 2.1 µM
- TGI [6]: 6.06 µM
- GI50 [7]: 2.5 µM
- TGI [7]: 6.88 µM
- GI50 [8]: 1.8 µM
- TGI [8]: 3.41 µM
- GI50 [9]: 1.72 µM
- TGI [9]: 3.16 µM
- GI50 [10]: 1.49 µM
- TGI [10]: 2.86 µM
- GI50 [11]: 2.27 µM
- TGI [11]: 6.75 µM
- GI50 [12]: 1.78 µM
- TGI [12]: 3.4 µM
- GI50 [13]: 1.46 µM
- TGI [13]: 2.93 µM
- GI50 [14]: 1.78 µM
- TGI [14]: 3.42 µM
- GI50 [15]: 1.61 µM
- TGI [15]: 3.02 µM
- GI50 [16]: 1.87 µM
- TGI [16]: 3.7 µM
- GI50 [17]: 1.72 µM
- TGI [17]: 3.14 µM
- GI50 [18]: 1.71 µM
- TGI [18]: 3.3 µM
- GI50 [19]: 1.39 µM
- TGI [19]: 4.19 µM
- GI50 [20]: 1.71 µM
- TGI [20]: 3.22 µM
- GI50 [21]: 1.6 µM
- TGI [21]: 2.97 µM
- GI50 [22]: 1.82 µM
- TGI [22]: 4.45 µM
- GI50 [23]: 1.91 µM
- TGI [23]: 4.77 µM
- GI50 [24]: 1.84 µM
- TGI [24]: 3.75 µM
- GI50 [25]: 0.404 µM
- TGI [25]: 2.32 µM
- GI50 [26]: 1.99 µM
- TGI [26]: 4.02 µM
- GI50 [27]: 1.39 µM
- TGI [27]: 3.95 µM
- GI50 [28]: 1.78 µM
- TGI [28]: 3.46 µM
- GI50 [29]: 1.64 µM
- TGI [29]: 9.81 µM
- GI50 [30]: 1.69 µM
- TGI [30]: 3.12 µM
- GI50 [31]: 1.84 µM
- TGI [31]: 3.48 µM
- GI50 [32]: 2.2 µM
- TGI [32]: 5.54 µM
- GI50 [33]: 1.74 µM
- TGI [33]: 3.18 µM
- GI50 [34]: 1.74 µM
- TGI [34]: 3.18 µM
- GI50 [35]: 1.75 µM
- TGI [35]: 3.2 µM
- GI50 [36]: 1.78 µM
- TGI [36]: 3.53 µM
- GI50 [37]: 1.77 µM
- TGI [37]: 3.33 µM
- GI50 [38]: 1.7 µM
- TGI [38]: 3.27 µM
- GI50 [39]: 1.8 µM
- TGI [39]: 3.93 µM
- GI50 [40]: 1.35 µM
- TGI [40]: 4.91 µM
- GI50 [41]: 1.7 µM
- TGI [41]: 3.27 µM
- GI50 [42]: 1.55 µM
- TGI [42]: 3 µM
- GI50 [43]: 1.75 µM
- TGI [43]: 3.24 µM
- GI50 [44]: 2.29 µM
- TGI [44]: 5.37 µM
- GI50 [45]: 1.62 µM
- TGI [45]: 3 µM
- GI50 [46]: 1.74 µM
- TGI [46]: 3.14 µM
- GI50 [47]: 1.75 µM
- TGI [47]: 3.78 µM
- GI50 [48]: 1.44 µM
- TGI [48]: 2.79 µM
- GI50 [49]: 1.77 µM
- TGI [49]: 3.24 µM
- GI50 [50]: 1.68 µM
- TGI [50]: 3.05 µM
- GI50 [51]: 1.5 µM
- TGI [51]: 2.91 µM
- GI50 [52]: 1.64 µM
- TGI [52]: 3.09 µM
- GI50 [53]: 2.61 µM
- TGI [53]: 8.2 µM
- GI50 [54]: 1.7 µM
- TGI [54]: 3.13 µM
- GI50 [55]: 2.63 µM
- TGI [55]: 6.8 µM
- GI50 [56]: 1.79 µM
- TGI [56]: 3.28 µM

Source: PubChem BioAssay (NCI)
